According to patent US20160303095A1, “METHODS OF TREATING HEPATITIS B VIRUS” (Gilead Sciences, Inc., priority 2015, published 2016):
Read-outs that look alike come from different tables or passages of the source.

Key:
H3K4me3 mark = test: Western blot detection of H3K4me3 in HBV-infected PHHs; type: cell-based, human; details: for IC50: Homo sapiens; for chromatin H3K4Me3 mark: PHH from three different donors
Experimental: One million primary human hepatocytes (PHH) cells from three different donors were plated in 6 well collagen coated tissue culture plates in 2.5 ml Plating Media containing William's Medium E supplemented with 1% Penicillin/Streptomycin, 4 μg/mL human recombinant insulin, 2 mM glutamax, 15 mM Hepes, 1 μM dexamethasone and 5% fetal bovine serum (Life Technologies, Cat#A12176-01 Life Technologies, Chicago, Ill.) and incubated for 4-hours at 37° C. Following this incubation the media was changed to Maintenance Media (Cat#CM4000-A15564 Life Technologies, Chicago, Ill.) containing William's Medium E supplemented with 0.5% Penicillin/Streptomycin, 6.25 μg/mL human recombinant insulin, 6.25 μg/mL human transferrin, 6.25 ng/mL selenous acid, 1.25 mg/mL bovine serum albumin, 5.35 μg/mL linoleic acid, 2 mM glutamax, 15 mM Hepes, 0.1 μM dexamethasone, 2% fetal bovine serum, and 2% DMSO (Cat#D2650 Sigma, St. Louis, Mo.). The next day, cells were infected with approximately 500 genome equivalents of HBV clinical isolates 21P (GTA) or AD38 (GTD) per cell in Maintenance Media supplemented with 4% PEG 8000. Small molecule inhibitors targeting KDMs were serially diluted in Maintenance Media and added to cells at 3 days post infection (p.i.). Media with compounds was replenished every 2-3 days. Cells were harvested on day 14 p.i. by scraping the monolayer into ice-cold PBS supplemented with 5 mM Sodium Butyrate and concentrated by centrifugation at 1000×g for 5 minutes at 4° C. The cell pellets were washed twice by re-suspension in PBS and concentrated by centrifugation. The cells were lysed by suspension in Triton Extraction Buffer (TEB: PBS containing 0.5% Triton X 100 (v/v), 2 mM phenylmethylsulfonyl fluoride (PMSF), 0.02% (w/v) NaN3) at a cell density of 10^7 cells per ml and incubated on ice for 10 minutes with gentle stirring. Following centrifugation at 500 g for 10 minutes at 4° C., the supernatants were removed and the pellets were washed in 5×10^7 cells per ml TEB buffer and centrifuged as before. The pellets were re-suspended in 0.2N HCl at a cell density of 4×10^7 cells per ml and the histones were acid extracted overnight at 4° C. Samples were centrifuged at 500 g for 10 minutes at 4° C., the supematants were removed and protein content was determined using the Bradford assay. Histones were separated on a 4-20% gradient SDS gel (Mini protean TGX precast gels from BioRad), and blotted to a Hybond C-extra nitrocellulose membrane (Amersham Biosciences, RPN303E). H3K4me3 and total H3 were detected with a mixture of 1° antibodies (Cat#05-745R Millipore and Cat#14269S Cell Signaling) diluted 1:1000 in 5% skimmed milk powder in PBS containing 0.1% Tween. The western blot was washed 3 times in PBS containing 0.1% tween and incubated with 2° antibodies (Donkey anti-Mouse IRDye at 680LT Cat#926-68022 Licor Odyssey; Donkey anti-Rabbit IRDye at 800CW Cat#96-32213; Licor Odyssey) diluted 1:10000 in 5% skimmed milk powder in PBS containing 0.1% tween 20 for 1 h. Detection of infrared fluorescence was performed on Infrared Fluorescence Imaging System LI-COR. Concentration dependence of H3K4me3/H3 signal was used to calculate IC50 value for induction of H3K4 trimethylation.

HBV = test: Effect of the withdrawal of KDM inhibitors on HBV rebound (HBsAg, HBeAg) in PHH; type: cell-based, Hepatitis B Virus; details: for HBeAg / HBsAg: PHH donor 8181, virus P21, compound removed after two weeks; for suppression of viral transcription after withdrawal: up to another 14 days after withdrawal; for rebound of HBsAg or HBeAg secretion into media after compound withdrawal: PHH donor 8181, 21p virus, 14 days treatment, then 14 days without compound
Experimental: PHH from donor 8181 infected with 21p virus was treated with serially diluted Examples 8 or 7 for 14 days. Afterwards the compound was removed and cell cultures were replenished regularly with fresh medium but without compound for another 14 days. The levels of HBsAg and HBeAg secretion were measured during the course of the experiment to monitor the effects of compound on virus replication. No rebound of HBsAg or HBeAg secretion into media was observed after the compound withdrawal.
(§1) PHH from donor 8181 were infected with patient viruses P21 for three days before serially diluted Example 8 was added to the cells. After two weeks of the treatment the compound was removed and cells were followed for another 14 days. Activity of the compound was monitored during the course of the experiment using HBsAg and HBeAg readout. The medium with/without compound was replenished every 3-4 days. Day 0—compound was added to the infected cells.
as §1, with “PHH” for “PHH from”, “8181 was” for “8181 were”, “Example 7” for “Example 8”

[1] = read-out: IC50 (concentration causing a 50% increase in the H3K4me3 mark), Virus 21P (GTA), PHH 4239
[2] = read-out: IC50 (concentration causing a 50% increase in the H3K4me3 mark), Virus 21P (GTA), PHH 8130
[3] = read-out: IC50 (concentration causing a 50% increase in the H3K4me3 mark), Virus 21P (GTA), PHH 8181
[4] = read-out: IC50 (concentration causing a 50% increase in the H3K4me3 mark), Virus AD38 (GTD), PHH 4239
[5] = read-out: IC50 (concentration causing a 50% increase in the H3K4me3 mark), Virus AD38 (GTD), PHH 8130
[6] = read-out: IC50 (concentration causing a 50% increase in the H3K4me3 mark), Virus AD38 (GTD), PHH 8181

Compound: CCOC(=O)c1ccnc(CNCC(=O)N(CC)CCN(C)C)c1 [Example 8]
- IC50 (H3K4me3 mark; [1]): 30 nM
- IC50 (H3K4me3 mark; [2]): 1 nM
- IC50 (H3K4me3 mark; [3]): 70 nM
- IC50 (H3K4me3 mark; [4]): 30 nM
- IC50 (H3K4me3 mark; [5]): 3 nM
- IC50 (H3K4me3 mark; [6]): 50 nM
- chromatin H3K4Me3 mark (H3K4me3 mark): increase in the chromatin H3K4Me3 mark in a dose-dependent manner
- HBeAg (HBV; 20 nM, Day 0): 0 ng/mL
- HBsAg (HBV; 20 nM, Day 0): 0 ng/mL
- HBeAg (HBV; 20 nM, Day 5): 5.3 ng/mL
- HBsAg (HBV; 20 nM, Day 5): 13.8 ng/mL
- HBeAg (HBV; 20 nM, Day 10): 31 ng/mL
- HBsAg (HBV; 20 nM, Day 10): 147 ng/mL
- HBeAg (HBV; 20 nM, Day 14): 13 ng/mL
- HBsAg (HBV; 20 nM, Day 14): 30 ng/mL
- HBeAg (HBV; 20 nM, Day 19): 3 ng/mL
- HBsAg (HBV; 20 nM, Day 19): 9 ng/mL
- HBeAg (HBV; 20 nM, Day 24): 2.3 ng/mL
- HBsAg (HBV; 20 nM, Day 24): 4.4 ng/mL
- HBeAg (HBV; 20 nM, Day 28): 1.9 ng/mL
- HBsAg (HBV; 20 nM, Day 28): 5.26 ng/mL
- suppression of viral transcription after withdrawal (HBV; 0.08 μM): prolonged suppression of viral transcription
- rebound of HBsAg or HBeAg secretion into media after compound withdrawal (HBV): No rebound

Compound: Nc1c(C(=O)O)ccnc1C(=O)O [Example 7, reference compound]
- suppression of viral transcription after withdrawal (HBV; 2 μM): prolonged suppression of viral transcription
- HBeAg (HBV; 2000 nM, Day 0): 0 ng/mL
- HBsAg (HBV; 2000 nM, Day 0): 0 ng/mL
- HBeAg (HBV; 2000 nM, Day 5): 9.2 ng/mL
- HBsAg (HBV; 2000 nM, Day 5): 20.6 ng/mL
- HBeAg (HBV; 2000 nM, Day 10): 25.1 ng/mL
- HBsAg (HBV; 2000 nM, Day 10): 149.2 ng/mL
- HBeAg (HBV; 2000 nM, Day 14): 13.7 ng/mL
- HBsAg (HBV; 2000 nM, Day 14): 68.6 ng/mL
- HBeAg (HBV; 2000 nM, Day 19): 7.0 ng/mL
- HBsAg (HBV; 2000 nM, Day 19): 26.8 ng/mL
- HBeAg (HBV; 2000 nM, Day 24): 5.3 ng/mL
- HBsAg (HBV; 2000 nM, Day 24): 11.7 ng/mL
- HBeAg (HBV; 2000 nM, Day 28): 5.4 ng/mL
- HBsAg (HBV; 2000 nM, Day 28): 19.1 ng/mL
- rebound of HBsAg or HBeAg secretion into media after compound withdrawal (HBV): No rebound

Compound: CCN(CCN(C)C)C(=O)CNCc1cc(C(=O)O)ccn1 [Example 9]
- IC50 (H3K4me3 mark; [1]): 60 nM
- IC50 (H3K4me3 mark; [2]): 130 nM
- IC50 (H3K4me3 mark; [3]): 100 nM
- IC50 (H3K4me3 mark; [4]): 10 nM
- IC50 (H3K4me3 mark; [5]): 130 nM
- IC50 (H3K4me3 mark; [6]): 130 nM
- chromatin H3K4Me3 mark (H3K4me3 mark): increase in the chromatin H3K4Me3 mark in a dose-dependent manner
